Measured values reported in US20070004653A1, “Stable lyophilized anthracycline glycosides” (priority 2005, published 2007).

Test: Stability tests of stabilized Idarubicin HCl, 1% w/v aqueous solution with NH4OAc or NH4OAc + AcOH
Assay type: physicochemical
Procedure: Starting product was idarubicin hydrochloride, 1% w/v aqueous solution, the analysis of which is shown in the data reported at t=0. 3% mol of NH4OAc with respect to idarubicin hydrochloride was added to the solution at t=0 and the solution was incubated at 4° C. for the indicated time.
Starting product was idarubicin hydrochloride, 1% w/v aqueous solution, the analysis of which is shown in the data reported at t=0. 3% mol of NH4OAc with respect to idarubicin hydrochloride was added to the solution at t=0 and the solution was incubated at 20° C. for the indicated time.
Starting product was idarubicin hydrochloride, 1% w/v aqueous solution, the analysis of which is shown in the data reported at t=0. 1% mol of NH4OAc with respect to idarubicin hydrochloride was added to the solution at t=0 and the solution was incubated at 4° C. for the indicated time.
Starting product was idarubicin hydrochloride, 1% w/v aqueous solution, the analysis of which is shown in the data reported at t=0. 1% mol of NH4OAc with respect to idarubicin hydrochloride was added to the solution at t=0 and the solution was incubated at 20° C. for the indicated time.
Starting product was idarubicin hydrochloride, 1% w/v aqueous solution, the analysis of which is shown in the data reported at t=0. 0.5% mol of NH4OAc and 0.5% mol of AcOH with respect to idarubicin hydrochloride were added to the solution at t=0 and the solution was incubated at 4° C. for the indicated time.
Starting product was idarubicin hydrochloride, 1% w/v aqueous solution, the analysis of which is shown in the data reported at t=0. 0.5% mol of NH4OAc and 0.5% mol of AcOH with respect to idarubicin hydrochloride were added to the solution at t=0 and the solution was incubated at 20° C. for the indicated time as shown in table 30.
Starting product was idarubicin hydrochloride, 1% w/v aqueous solution, the analysis of which is shown in the data reported at t=0. 1.5% mol of NH4OAc and 1.5% mol of AcOH with respect to idarubicin hydrochloride were added to the solution at t=0 and the solution was incubated at 4° C. for the indicated time.
Starting product was idarubicin hydrochloride, 1% w/v aqueous solution, the analysis of which is shown in the data reported at t=0. 1.5% mol of NH4OAc and 1.5% mol of AcOH with respect to idarubicin hydrochloride were added to the solution at t=0 and the solution was incubated at 20° C. for the indicated time.

[1] = NH4OAc 0.5% mol + AcOH 0.5% mol, pH 5.08, 4° C., 25 hr
[2] = NH4OAc 0.5% mol + AcOH 0.5% mol, pH 5.08, 4° C., 95 hr
[3] = NH4OAc 0.5% mol + AcOH 0.5% mol, pH 5.08, 20° C., 19 hr
[4] = NH4OAc 0.5% mol + AcOH 0.5% mol, pH 5.08, 20° C., 90 hr
[5] = NH4OAc 1% mol, pH 5.92, 4° C., 24 hr
[6] = NH4OAc 1% mol, pH 5.92, 20° C., 18 hr
[7] = NH4OAc 1% mol, pH 5.92, 20° C., 313 hr
[8] = NH4OAc 1.5% mol + AcOH 1.5% mol, pH 4.94, 4° C., 314 hr
[9] = NH4OAc 1.5% mol + AcOH 1.5% mol, pH 4.94, 20° C., 21 hr
[10] = NH4OAc 1.5% mol + AcOH 1.5% mol, pH 4.94, 20° C., 68 hr
[11] = NH4OAc 1.5% mol + AcOH 1.5% mol, pH 4.94, 20° C., 139 hr
[12] = NH4OAc 1.5% mol + AcOH 1.5% mol, pH 4.94, 20° C., 315 hr
[13] = NH4OAc 3% mol, pH 5.94, 4° C., 30 hr
[14] = NH4OAc 3% mol, pH 5.94, 4° C., 131 hr
[15] = NH4OAc 3% mol, pH 5.94, 20° C., 26 hr
[16] = NH4OAc 3% mol, pH 5.94, 20° C., 130 hr

CC(=O)[C@]1(O)Cc2c(O)c3c(c(O)c2[C@@H](O[C@H]2C[C@@H](N)[C@H](O)C(C)O2)C1)C(=O)c1ccccc1C3=O.Cl (stereo partly drawn) [Idarubicin HCl, Idarubicin hydrochloride]
aglycone [1]: 0.59% | bis-anhydro [1]: 0.04% | aglycone [2]: 0.59% | bis-anhydro [2]: 0.05% | aglycone (NH4OAc 0.5% mol + AcOH 0.5% mol, pH 5.08, 4° C., t = 0): 0.59% | aglycone [3]: 0.59% | bis-anhydro [3]: 0.07% | aglycone [4]: 0.59% | bis-anhydro [4]: 0.18% | aglycone (NH4OAc 0.5% mol + AcOH 0.5% mol, pH 5.08, 20° C., t = 0): 0.59% | % aglycone [5]: 0.59% | % bis-anhydro [5]: 0.05% | % aglycone (NH4OAc 1% mol, pH 5.92, 4° C., t = 0): 0.59% | % aglycone [6]: 0.59% | % bis-anhydro [6]: 0.20% | % aglycone [7]: 0.60% | % bis-anhydro [7]: 4.46% | % aglycone (NH4OAc 1% mol, pH 5.92, 20° C., t = 0): 0.59% | aglycone (NH4OAc 1.5% mol + AcOH 1.5% mol, pH 4.94, 4° C., 26 hr): 0.59% | aglycone (NH4OAc 1.5% mol + AcOH 1.5% mol, pH 4.94, 4° C., 97 hr): 0.59% | aglycone [8]: 0.59% | bis-anhydro [8]: 0.06% | aglycone (NH4OAc 1.5% mol + AcOH 1.5% mol, pH 4.94, 4° C., t = 0): 0.59% | aglycone [9]: 0.59% | bis-anhydro [9]: 0.06% | aglycone [10]: 0.59% | bis-anhydro [10]: 0.16% | aglycone [11]: 0.59% | bis-anhydro [11]: 0.75% | aglycone [12]: 0.6% | bis-anhydro [12]: 6.21% | aglycone (NH4OAc 1.5% mol + AcOH 1.5% mol, pH 4.94, 20° C., t = 0): 0.59% | % aglycone [13]: 0.59% | % bis-anhydro [13]: 0.09% | % aglycone [14]: 0.59% | % bis-anhydro [14]: 0.25% | % aglycone (NH4OAc 3% mol, pH 5.94, 4° C., t = 0): 0.59% | % aglycone [15]: 0.59% | % bis-anhydro [15]: 0.50% | % aglycone [16]: 0.59% | % bis-anhydro [16]: 1.39% | % aglycone (NH4OAc 3% mol, pH 5.94, 20° C., t = 0): 0.59%
